Legend:
Assay in all cases: radiometric filter-binding kinase assay, Kinase HotSpot
Conditions in all cases: compound 0.5 µM; ATP 10 µM
HIPK3 (human) = HIPK3 (human) (UniProt Q9H422)
TAOK1 (human) = TAOK1 (human) (UniProt Q7L7X3)
NTRK2 (human) = NTRK2 (human) (UniProt Q16620)
DAPK2 (human) = DAPK2 (human) (UniProt Q9UIK4)
SIK2 (human) = SIK2 (human) (UniProt Q9H0K1)
PRKCZ (human) = PRKCZ (human) (UniProt Q05513)
SLK (human) = SLK (human) (UniProt Q9H2G2)
AURKB (human) = AURKB (human) (UniProt Q96GD4)
MAP3K2 (human) = MAP3K2 (human) (UniProt Q9Y2U5)
RIPK2 (human) = RIPK2 (human) (UniProt O43353)
STK16 (human) = STK16 (human) (UniProt O75716)
CLK3 (human) = CLK3 (human) (UniProt P49761)
SRMS (human) = SRMS (human) (UniProt Q9H3Y6)
MAP3K7 TAB1 (human) = MAP3K7 TAB1 (human) (UniProt O43318+Q15750)
Chain of MAP3K7 TAB1 (human) (O43318 whole entry, looked up): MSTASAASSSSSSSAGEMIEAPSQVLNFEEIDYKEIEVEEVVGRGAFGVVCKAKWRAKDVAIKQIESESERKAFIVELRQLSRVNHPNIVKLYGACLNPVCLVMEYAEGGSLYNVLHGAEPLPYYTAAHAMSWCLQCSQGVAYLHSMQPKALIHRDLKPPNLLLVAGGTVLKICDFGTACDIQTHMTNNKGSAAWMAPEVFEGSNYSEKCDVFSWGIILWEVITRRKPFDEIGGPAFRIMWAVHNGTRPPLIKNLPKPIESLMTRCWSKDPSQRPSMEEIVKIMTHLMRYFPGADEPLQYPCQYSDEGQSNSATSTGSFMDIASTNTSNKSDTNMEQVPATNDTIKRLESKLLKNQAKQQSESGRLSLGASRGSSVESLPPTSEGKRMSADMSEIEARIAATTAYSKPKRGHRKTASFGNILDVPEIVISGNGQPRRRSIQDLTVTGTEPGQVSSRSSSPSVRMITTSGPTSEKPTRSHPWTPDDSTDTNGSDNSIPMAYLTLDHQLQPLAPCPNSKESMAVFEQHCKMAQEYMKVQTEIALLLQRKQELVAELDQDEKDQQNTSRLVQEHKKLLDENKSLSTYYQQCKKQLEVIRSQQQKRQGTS
Chain of MAP3K7 TAB1 (human) (Q15750 whole entry, looked up): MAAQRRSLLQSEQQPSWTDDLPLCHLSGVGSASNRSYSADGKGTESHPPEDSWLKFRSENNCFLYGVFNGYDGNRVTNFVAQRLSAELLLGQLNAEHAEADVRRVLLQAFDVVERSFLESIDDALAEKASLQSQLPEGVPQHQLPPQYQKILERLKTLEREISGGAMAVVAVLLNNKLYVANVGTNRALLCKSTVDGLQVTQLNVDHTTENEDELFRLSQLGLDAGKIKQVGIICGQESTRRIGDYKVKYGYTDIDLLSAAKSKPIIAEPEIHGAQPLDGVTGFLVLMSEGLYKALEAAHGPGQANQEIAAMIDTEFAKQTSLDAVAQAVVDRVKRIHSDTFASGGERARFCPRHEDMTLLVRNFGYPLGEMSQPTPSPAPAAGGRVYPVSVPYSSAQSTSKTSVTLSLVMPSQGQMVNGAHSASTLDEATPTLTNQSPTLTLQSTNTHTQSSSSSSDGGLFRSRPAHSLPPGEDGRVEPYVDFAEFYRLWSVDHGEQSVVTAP

NEK11 (human) = NEK11 (human) (UniProt Q8NG66)
VRK1 (human) = VRK1 (human) (UniProt Q99986)
Chain of VRK1 (human) (Q99986 whole entry, looked up): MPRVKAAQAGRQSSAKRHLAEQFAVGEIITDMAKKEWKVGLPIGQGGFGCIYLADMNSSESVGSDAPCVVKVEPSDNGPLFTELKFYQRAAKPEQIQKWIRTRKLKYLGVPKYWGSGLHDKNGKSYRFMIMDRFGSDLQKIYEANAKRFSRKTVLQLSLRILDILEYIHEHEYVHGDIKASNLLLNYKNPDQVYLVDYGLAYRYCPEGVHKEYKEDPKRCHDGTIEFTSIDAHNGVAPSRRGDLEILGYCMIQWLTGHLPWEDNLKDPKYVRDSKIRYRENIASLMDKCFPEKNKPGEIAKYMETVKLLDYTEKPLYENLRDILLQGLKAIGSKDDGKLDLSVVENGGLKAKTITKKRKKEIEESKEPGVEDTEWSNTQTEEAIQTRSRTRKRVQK

CSNK1G2 (human) = CSNK1G2 (human) (UniProt P78368)
SYK (human) = SYK (human) (UniProt P43405)
NUAK1 (human) = NUAK1 (human) (UniProt O60285)
TBK1 (human) = TBK1 (human) (UniProt Q9UHD2)
SGK2 (human) = SGK2 (human) (UniProt Q9HBY8)
EPHB4 (human) = EPHB4 (human) (UniProt P54760)
CAMK2G (human) = CAMK2G (human) (UniProt Q13555)
CHEK2 (human) = CHEK2 (human) (UniProt O96017)
MELK (human) = MELK (human) (UniProt Q14680)
FRK (human) = FRK (human) (UniProt P42685)
AXL (human) = AXL (human) (UniProt P30530)
MAPKAPK3 (human) = MAPKAPK3 (human) (UniProt Q16644)
PAK3 (human) = PAK3 (human) (UniProt O75914)
MAP3K5 (human) = MAP3K5 (human) (UniProt Q99683)
PNCK (human) = PNCK (human) (UniProt Q6P2M8)
MAP4K2 (human) = MAP4K2 (human) (UniProt Q12851)
Chain of MAP4K2 (human) (Q12851 whole entry, looked up): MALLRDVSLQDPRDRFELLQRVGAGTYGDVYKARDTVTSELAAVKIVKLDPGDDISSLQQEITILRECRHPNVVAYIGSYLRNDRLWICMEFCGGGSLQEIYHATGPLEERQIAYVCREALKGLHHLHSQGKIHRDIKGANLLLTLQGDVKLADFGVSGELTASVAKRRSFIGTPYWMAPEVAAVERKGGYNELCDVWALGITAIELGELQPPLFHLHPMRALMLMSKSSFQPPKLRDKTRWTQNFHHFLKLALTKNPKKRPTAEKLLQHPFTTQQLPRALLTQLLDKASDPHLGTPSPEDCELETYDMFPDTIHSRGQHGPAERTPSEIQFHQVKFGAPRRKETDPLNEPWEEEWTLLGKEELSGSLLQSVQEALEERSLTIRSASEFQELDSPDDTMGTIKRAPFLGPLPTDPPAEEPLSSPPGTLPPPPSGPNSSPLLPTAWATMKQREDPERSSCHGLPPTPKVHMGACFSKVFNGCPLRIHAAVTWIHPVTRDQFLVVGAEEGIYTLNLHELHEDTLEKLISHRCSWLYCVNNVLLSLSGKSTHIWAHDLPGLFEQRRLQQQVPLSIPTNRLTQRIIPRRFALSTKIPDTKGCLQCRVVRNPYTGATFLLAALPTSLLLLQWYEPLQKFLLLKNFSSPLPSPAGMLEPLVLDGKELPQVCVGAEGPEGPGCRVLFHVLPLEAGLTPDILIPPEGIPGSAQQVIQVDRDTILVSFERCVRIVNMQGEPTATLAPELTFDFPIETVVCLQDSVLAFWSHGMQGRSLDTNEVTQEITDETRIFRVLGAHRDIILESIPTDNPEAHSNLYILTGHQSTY

MAPK10 (human) = MAPK10 (human) (UniProt P53779)
TSSK1B (human) = TSSK1B (human) (UniProt Q9BXA7)
Chain of TSSK1B (human) (Q9BXA7 whole entry, looked up): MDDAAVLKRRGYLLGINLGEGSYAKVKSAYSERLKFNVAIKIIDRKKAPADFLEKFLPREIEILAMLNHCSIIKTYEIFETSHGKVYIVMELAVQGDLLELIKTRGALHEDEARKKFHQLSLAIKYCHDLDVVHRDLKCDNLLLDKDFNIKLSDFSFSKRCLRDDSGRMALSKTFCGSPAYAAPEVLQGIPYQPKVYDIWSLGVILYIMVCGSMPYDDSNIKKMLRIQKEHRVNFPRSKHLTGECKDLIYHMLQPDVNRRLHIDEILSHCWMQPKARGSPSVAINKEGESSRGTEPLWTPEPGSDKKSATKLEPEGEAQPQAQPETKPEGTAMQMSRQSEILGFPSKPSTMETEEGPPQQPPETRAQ

FLT3 (human) = FLT3 (human) (UniProt P36888)
IGF1R (human) = IGF1R (human) (UniProt P08069)
GSK3A (human) = GSK3A (human) (UniProt P49840)
[1] = biological target: JAK1 JH1 catalytic (human) (UniProt P23458)
CAMK1G (human) = CAMK1G (human) (UniProt Q96NX5)
CHEK1 (human) = CHEK1 (human) (UniProt O14757)
TGFBR2 (human) = TGFBR2 (human) (UniProt P37173)

Chain of SLK (human) (Q9H2G2 whole entry, looked up): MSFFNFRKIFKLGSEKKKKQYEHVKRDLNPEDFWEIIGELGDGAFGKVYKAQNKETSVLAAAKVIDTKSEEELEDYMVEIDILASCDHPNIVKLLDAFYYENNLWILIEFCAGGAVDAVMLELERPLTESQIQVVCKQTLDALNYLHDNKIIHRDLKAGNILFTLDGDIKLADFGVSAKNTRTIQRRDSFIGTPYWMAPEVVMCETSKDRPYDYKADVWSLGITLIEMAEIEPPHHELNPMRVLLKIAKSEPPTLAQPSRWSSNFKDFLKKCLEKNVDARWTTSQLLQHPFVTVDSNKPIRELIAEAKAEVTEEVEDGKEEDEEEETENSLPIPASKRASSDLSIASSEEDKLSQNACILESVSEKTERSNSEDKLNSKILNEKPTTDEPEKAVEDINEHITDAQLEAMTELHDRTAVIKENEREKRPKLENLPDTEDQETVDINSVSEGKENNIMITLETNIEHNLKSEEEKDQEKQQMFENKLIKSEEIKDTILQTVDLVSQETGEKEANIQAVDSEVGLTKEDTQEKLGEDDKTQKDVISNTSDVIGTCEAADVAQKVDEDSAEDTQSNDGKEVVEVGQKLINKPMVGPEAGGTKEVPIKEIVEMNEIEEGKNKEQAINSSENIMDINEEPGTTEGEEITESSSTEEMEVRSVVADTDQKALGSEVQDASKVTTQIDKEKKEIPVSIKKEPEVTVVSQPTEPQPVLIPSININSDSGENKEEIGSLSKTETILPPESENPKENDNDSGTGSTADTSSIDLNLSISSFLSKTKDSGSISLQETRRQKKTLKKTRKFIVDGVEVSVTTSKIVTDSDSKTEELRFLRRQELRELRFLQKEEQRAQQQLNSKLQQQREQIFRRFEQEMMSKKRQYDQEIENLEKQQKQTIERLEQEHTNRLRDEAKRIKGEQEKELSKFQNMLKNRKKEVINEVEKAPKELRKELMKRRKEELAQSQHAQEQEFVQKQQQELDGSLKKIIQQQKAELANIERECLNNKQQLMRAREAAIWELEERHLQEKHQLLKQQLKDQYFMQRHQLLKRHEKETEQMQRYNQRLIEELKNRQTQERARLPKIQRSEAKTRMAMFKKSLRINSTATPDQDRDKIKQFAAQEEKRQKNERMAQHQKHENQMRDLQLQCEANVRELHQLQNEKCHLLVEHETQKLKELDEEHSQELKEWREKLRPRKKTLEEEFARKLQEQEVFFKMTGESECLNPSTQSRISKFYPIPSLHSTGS
Chain of SIK2 (human) (Q9H0K1 whole entry, looked up): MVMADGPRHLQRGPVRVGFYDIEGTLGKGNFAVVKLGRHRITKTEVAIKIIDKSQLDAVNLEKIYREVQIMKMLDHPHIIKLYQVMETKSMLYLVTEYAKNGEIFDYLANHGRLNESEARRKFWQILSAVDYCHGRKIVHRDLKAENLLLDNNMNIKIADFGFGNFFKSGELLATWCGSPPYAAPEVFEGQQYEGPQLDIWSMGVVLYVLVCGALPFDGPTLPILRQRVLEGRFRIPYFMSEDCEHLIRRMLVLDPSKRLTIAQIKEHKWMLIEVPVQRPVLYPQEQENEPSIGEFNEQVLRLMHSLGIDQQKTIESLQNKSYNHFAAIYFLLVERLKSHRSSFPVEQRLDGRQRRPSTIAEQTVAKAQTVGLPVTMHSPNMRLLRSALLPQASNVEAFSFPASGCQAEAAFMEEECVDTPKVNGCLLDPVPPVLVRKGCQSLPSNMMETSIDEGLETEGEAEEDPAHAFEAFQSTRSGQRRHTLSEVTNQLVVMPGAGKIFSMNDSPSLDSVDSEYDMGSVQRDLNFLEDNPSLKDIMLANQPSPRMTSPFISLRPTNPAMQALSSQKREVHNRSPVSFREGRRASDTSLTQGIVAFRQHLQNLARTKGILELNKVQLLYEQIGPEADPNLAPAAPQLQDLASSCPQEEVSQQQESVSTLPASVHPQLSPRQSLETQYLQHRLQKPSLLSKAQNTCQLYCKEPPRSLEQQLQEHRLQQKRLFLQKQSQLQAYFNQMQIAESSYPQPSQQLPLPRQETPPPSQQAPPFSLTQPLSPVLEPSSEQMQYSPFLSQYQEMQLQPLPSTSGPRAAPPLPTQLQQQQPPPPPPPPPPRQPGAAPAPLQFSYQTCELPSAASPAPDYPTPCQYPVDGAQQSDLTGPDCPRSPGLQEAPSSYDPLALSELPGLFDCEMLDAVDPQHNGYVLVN

CCn1cnc2c(Nc3cccc(Cl)c3)nc(N[C@@H]3CCCC[C@@H]3N)nc21
residual activity (HIPK3 (human)): 102% | residual activity (TAOK1 (human)): 90.2% | residual activity (NTRK2 (human)): 55.3% | residual activity (DAPK2 (human)): 99% | residual activity (SIK2 (human)): 89.1% | residual activity (PRKCZ (human)): 106% | residual activity (SLK (human)): 71.4% | residual activity (AURKB (human)): 98.8% | residual activity (MAP3K2 (human)): 91.7% | residual activity (RIPK2 (human)): 70% | residual activity (STK16 (human)): 101% | residual activity (CLK3 (human)): 99.8% | residual activity (SRMS (human)): 85.9% | residual activity (MAP3K7 TAB1 (human)): 98.9% | residual activity (NEK11 (human)): 101% | residual activity (VRK1 (human)): 103% | residual activity (CSNK1G2 (human)): 69.5% | residual activity (SYK (human)): 98.4% | residual activity (NUAK1 (human)): 52.4% | residual activity (TBK1 (human)): 92.8% | residual activity (SGK2 (human)): 98.2% | residual activity (EPHB4 (human)): 70.8% | residual activity (CAMK2G (human)): 104% | residual activity (CHEK2 (human)): 79.9% | residual activity (MELK (human)): 77% | residual activity (FRK (human)): 87.7% | residual activity (AXL (human)): 98.7% | residual activity (MAPKAPK3 (human)): 91.3% | residual activity (PAK3 (human)): 91.9% | residual activity (MAP3K5 (human)): 103% | residual activity (PNCK (human)): 98.5% | residual activity (MAP4K2 (human)): 87.4% | residual activity (MAPK10 (human)): 98.8% | residual activity (TSSK1B (human)): 87.4% | residual activity (FLT3 (human)): 12.7% | residual activity (IGF1R (human)): 51.8% | residual activity (GSK3A (human)): 103% | residual activity [1]: 98.6% | residual activity (CAMK1G (human)): 94.1% | residual activity (CHEK1 (human)): 85.8% | residual activity (TGFBR2 (human)): 91.2%
